From patent publication US20250171423A1, “PHARMACEUTICAL COMPOUNDS FOR THE TREATMENT OF COMPLEMENT MEDIATED DISORDERS” (Achillion Pharmaceuticals, Inc., priority 2020, published 2025) come the findings set out here.

The target in this assay is T1, Human complement C1s enzyme (Homo sapiens, UniProt P09871).
T1 construct: purified from human serum, Complement Technology, Inc; purchased Complement Technology, Inc; host or cells: human serum
T1 sequence (P09871 438-688 limits assumed): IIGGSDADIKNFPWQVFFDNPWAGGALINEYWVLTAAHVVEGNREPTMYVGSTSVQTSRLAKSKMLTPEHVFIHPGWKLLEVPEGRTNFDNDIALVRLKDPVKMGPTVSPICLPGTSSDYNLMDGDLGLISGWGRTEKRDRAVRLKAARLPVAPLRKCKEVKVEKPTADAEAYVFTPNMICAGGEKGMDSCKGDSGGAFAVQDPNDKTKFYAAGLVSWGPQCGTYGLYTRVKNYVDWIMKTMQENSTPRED
T1 sequence (P09871 16-437 partner limits assumed): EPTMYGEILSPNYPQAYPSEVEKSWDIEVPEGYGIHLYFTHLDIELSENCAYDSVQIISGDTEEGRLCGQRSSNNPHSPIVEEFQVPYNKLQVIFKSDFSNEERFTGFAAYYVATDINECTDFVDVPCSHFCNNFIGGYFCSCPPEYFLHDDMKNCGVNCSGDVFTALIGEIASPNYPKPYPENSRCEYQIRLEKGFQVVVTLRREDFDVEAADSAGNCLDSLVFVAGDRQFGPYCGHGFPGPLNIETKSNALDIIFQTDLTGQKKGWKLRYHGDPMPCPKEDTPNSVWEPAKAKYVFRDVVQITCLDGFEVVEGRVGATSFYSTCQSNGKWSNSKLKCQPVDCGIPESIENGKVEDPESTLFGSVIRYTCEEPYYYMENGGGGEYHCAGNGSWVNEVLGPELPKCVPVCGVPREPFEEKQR
The assay is described as follows: Human C1s Enzyme Assay. The assay is classed as biochemical. To be noted: human C1s 1.16 nM, 5 min preincubation, substrate Z-L-Lys-SBzl 100 μM, A405; read-out: C1s Protease Activity. As to the method:
The assay of Example 3 was used to determine the IC50's of the compounds. Other standard complement assays are also available.
Example 3. Human C1s Enzyme Assay
Human complement C1s enzyme (purified from human serum, Complement Technology, Inc.) at 1.16 nM final concentration was incubated with test compound at various concentrations for 5 min at room temperature in 50 mM Tris, 1 M NaCl, pH 7.5. A synthetic substrate Z-L-Lys-SBzl and DTNB (Ellman's reagent) were added to final concentrations of 100 μM each. Absorbance at 405 nm (A405) was recorded at 30 second intervals for 30 min using a microplate spectrophotometer. IC50 values were calculated by nonlinear regression of complement C1s reaction rates as a function of test compound concentration.
Turning to `C[C@@H](NC(=O)[C@@H]1C[C@@H](Oc2ccc(F)cc2)CN1C(=O)CNC(=O)CCCOc1ccccc1)c1cc(C(=N)N)cs1` [Compound 119, (2S,4R)-N-((R)-1-(4-carbamimidoylthiophen-2-yl)ethyl)-4-(4-fluorophenoxy)-1-((4-phenoxybutanoyl)glycyl)pyrrolidine-2-carboxamide], the IC50 was less than 100 nM.
Under `C[C@@H](NC(=O)[C@@H]1C[C@]2(COCC(=O)O)C[C@@H]2N1C(=O)CNC(=O)CCCOc1ccccc1)c1cc(C(=N)N)cs1` [Compound 148, 2-(((1S,3S,5R)-3-(((R)-1-(4-carbamimidoylthiophen-2-yl)ethyl)carbamoyl)-2-((4-phenoxybutanoyl)glycyl)-2-azabicyclo[3.1.0]hexan-5-yl)methoxy)acetic acid] stands less than 100 nM.
Next, `CC(CCC(=O)NCC(=O)N1CC2(C[C@H]1C(=O)NCc1cc(C(=N)N)cs1)OCCO2)Oc1ccccc1` (stereo partly drawn) [Compound 97, (8S)-N-((4-carbamimidoylthiophen-2-yl)methyl)-7-((4-phenoxypentanoyl)glycyl)-1,4-dioxa-7-azaspiro[4.4]nonane-8-carboxamide]: less than 100 nM.
As for `N=C(N)c1csc([C@H](NC(=O)[C@@H]2CC3(CN2C(=O)CNC(=O)CCCOc2ccccc2)OCCO3)c2ccccc2)c1` [Compound 175, (S)-N-((R)-(4-carbamimidoylthiophen-2-yl)(phenyl)methyl)-7-((4-phenoxybutanoyl)glycyl)-1,4-dioxa-7-azaspiro[4.4]nonane-8-carboxamide], the IC50 was greater than 1000 nM.
For the molecule `N=C(N)c1csc([C@@H](CO)NC(=O)[C@@H]2C[C@@H](OC(F)F)CN2C(=O)CNC(=O)c2ccc(Oc3ccccc3)cc2)c1` [Compound 197, (2S,4R)-N-((R)-1-(4-carbamimidoylthiophen-2-yl)-2-hydroxyethyl)-4-(difluoromethoxy)-1-((4-phenoxybenzoyl)glycyl)pyrrolidine-2-carboxamide], the IC50 was less than 100 nM.
Turning to `COC[C@@H]1C[C@@H](C(=O)N[C@H](C)c2cc(C(=N)N)cs2)N(C(=O)CNC(=O)c2ccc(Oc3ccccc3)cc2)C1` [Compound 253, (2S,4R)-N-((R)-1-(4-carbamimidoylthiophen-2-yl)ethyl)-4-(methoxymethyl)-1-((4-phenoxybenzoyl)glycyl)pyrrolidine-2-carboxamide], the IC50 is less than 100 nM.
For `C[C@@]12C[C@@H]1N(C(=O)CNC(=O)c1ccc(Oc3ccccc3)cc1)[C@H](C(=O)NCc1cc(C(=N)N)c(F)s1)C2` [Compound 239, (1S,3S,5S)-N-((4-carbamimidoyl-5-fluorothiophen-2-yl)methyl)-5-methyl-2-((4-phenoxybenzoyl)glycyl)-2-azabicyclo[3.1.0]hexane-3-carboxamide], the IC50 was less than 100 nM.
Turning to `C[C@@]12C[C@@H]1N(C(=O)CNC(=O)c1cccc(Oc3ccccc3)c1)[C@H](C(=O)NCc1cc(C(=N)N)cs1)C2` [Compound 137, (1S,3S,5S)-N-((4-carbamimidoylthiophen-2-yl)methyl)-5-methyl-2-((3-phenoxbenzoyl)glycyl)-2-azabicyclo[3.1.0]hexane-3-carboxamide], the IC50 was less than 100 nM.
Next, `C[C@@]12C[C@@H]1N(C(=O)CNC(=O)CCCOc1ccccc1)[C@H](C(=O)NCc1cc(C(=N)N)c(C(F)(F)F)s1)C2` [Compound 251, (1S,3S,5S)-N-((4-carbamimidoyl-5-(trifluoromethyl)thiophen-2-yl)methyl)-5-methyl-2-((4-phenoxybutanoyl)glycyl)-2-azabicyclo[3.1.0]hexane-3-carboxamide]: greater than 1000 nM; `C[C@@]12C[C@@H]1N(C(=O)CNC(=O)c1ccc(Oc3ccccc3)cc1)[C@H](C(=O)NCc1cc(C(=N)N)c(C(F)(F)F)s1)C2` [Compound 248, (1S,3S,5S)-N-((4-carbamimidoyl-5-(trifluoromethyl)thiophen-2-yl)methyl)-5-methyl-2-((4-phenoxybenzoyl)glycyl)-2-azabicyclo[3.1.0]hexane-3-carboxamide]: greater than 1000 nM; `C[C@@H](NC(=O)[C@@H]1C[C@]2(C)C[C@@H]2N1C(=O)CNC(=O)c1ccc(Oc2ccccc2)cc1)c1cc(C(=N)N)cs1` (single isomer, unassigned) [Compound 49, (1S,3S,5S)-N-((R*)-1-(4-carbamimidoylthiophen-2-yl)ethyl)-5-methyl-2-((4-phenoxy-benzoyl)glycyl)-2-azabicyclo[3.1.0]hexane-3-carboxamide]: 100 to 1000 nM.
`N=C(N)c1csc([C@H](CO)NC(=O)[C@@H]2C[C@@H](OC(F)F)CN2C(=O)CNC(=O)c2ccc(Oc3ccccc3)cc2)c1` [Compound 198, (2S,4R)-N-((S)-1-(4-carbamimidoylthiophen-2-yl)-2-hydroxyethyl)-4-(difluoromethoxy)-1-((4-phenoxybenzoyl)glycyl)pyrrolidine-2-carboxamide]: the IC50 is less than 100 nM.
Next, `C[C@@]12C[C@@H]1N(C(=O)CNC(=O)CCCOc1ccc(C(=O)O)cc1)[C@H](C(=O)NCc1cc(C(=N)N)cs1)C2` [Compound 80, 4-(4-((2-((1S,3S,5S)-3-(((4-carbamimidoylthiophen-2-yl)methyl)carbamoyl)-5-methyl-2-azabicyclo[3.1.0]hexan-2-yl)-2-oxoethyl)amino)-4-oxobutoxy)benzoic acid]: 100 to 1000 nM; `N=C(N)c1csc([C@H](NC(=O)[C@@H]2C[C@@H](OC(F)F)CN2C(=O)CNC(=O)c2ccc(Oc3ccccc3)cc2)C2CC2)c1` [Compound 183, (2S,4R)-N-((R)-(4-carbamimidoylthiophen-2-yl)(cyclopropyl)methyl)-4-(difluoromethoxy)-1-((4-phenoxybenzoyl)glycyl)pyrrolidine-2-carboxamide]: greater than 1000 nM; `C[C@@H](NC(=O)[C@@H]1C[C@@H](S(C)(=O)=O)CN1C(=O)CNC(=O)c1ccc(Oc2ccccc2)cc1)c1cc(C(=N)N)cs1` [Compound 192, (2S,4R)-N-((R)-1-(4-carbamimidoylthiophen-2-yl)ethyl)-4-(methylsulfonyl)-1-((4-phenoxybenzoyl)glycyl)pyrrolidine-2-carboxamide]: less than 100 nM.
As for `CN(C)C[C@@]1(F)C[C@@H](C(=O)NCc2cc(C(=N)N)cs2)N(C(=O)CNC(=O)CCCOc2ccccc2)C1` [Compound 129, (2S,4S)-N-[(4-carbamimidoylthiophen-2-yl)methyl]-4-[(dimethylamino)methyl]-4-fluoro-1-[2-(4-phenoxybutanamido)acetyl]pyrrolidine-2-carboxamide], the IC50 was less than 100 nM.
Take `N=C(N)c1csc(CNC(=O)[C@@H]2C[C@]3(CN2C(=O)CNC(=O)c2ccc(Oc4ccccc4)cc2)CC3(F)F)c1` [Compound 22, (3R,6S)-N-((4-carbamimidoylthiophen-2-yl)methyl)-1,1-difluoro-5-((4-phenoxy-benzoyl)glycyl)-5-azaspiro[2.4]heptane-6-carboxamide]: the IC50 was less than 100 nM.
Under `O=C(NCC(=O)N1CC2(C[C@H]1C(=O)NCc1cc(-c3ncc[nH]3)cs1)OCCO2)c1ccc(Oc2ccccc2)cc1` [Compound 259, (S)-N-((4-(1H-imidazol-2-yl)thiophen-2-yl)methyl)-7-((4-phenoxybenzoyl)glycyl)-1,4-dioxa-7-azaspiro[4.4]nonane-8-carboxamide] stands less than 100 nM.
